In experiment [1] the test system is E. coli conferring New-Delhi metallo-beta-lactamase (NDM) resistance. As to conditions: 10mM Tris (pH7.4) + 25mM NaCl, 20 hours, 37°C, at least 99.9% killing of inoculum; representative of three independent experiments.
In experiment [2] the test system is E. coli. Kind of experiment: SLAY screen of a defined library of five surface-displayed peptides. The experiment is classed as cell-based, Escherichia coli.
Experiment [3] has as its system E. coli K-12 strain W3110. The experiment is classed as cell-based, Escherichia coli.
Experiment [4] has as its system E. coli W3110, Acinetobacter baumannii (Ab 5075), Pseudomonas aeruginosa (PA14), NDM E. coli. As to conditions: 20 h.

Where no end group is shown, it is not given here.

This note sets out measurements from paper PMC5786472 (Cell, 2018).

LPLPSCSSHGGDADNTSQRN [Peptide P11]: the “MBC NDM E. coli” value in experiment [1] was 32 µM. As to YPYDVPDYAAYPYDVPDYAA [Peptide 2xHA], the log2 fold in experiment [2] is listed as −0.01. Also, the “effect of surface-displayed peptide on growth” value (from here on “effect”) in experiment [3] is “grew similarly at all IPTG concentrations”.

As to RLVRILVSKRPVAIKPYFRL [Peptide P1], the “MBC over all bacteria tested” value in experiment [4] is given as “less than 2 μM”.

As to `CC(C)C[C@H](NC(=O)[C@H](CCCNC(=N)N)NC(=O)CNC(=O)CNC(=O)[C@@H](N)CCCNC(=N)N)C(=O)N[C@H]1CSSC[C@@H](C(=O)N[C@H](C(=O)NCC(=O)N[C@@H](CCCNC(=N)N)C(N)=O)C(C)C)NC(=O)[C@H](C(C)C)NC(=O)[C@@H]2CSSC[C@H](NC(=O)[C@H](Cc3ccc(O)cc3)NC1=O)C(=O)N[C@@H](CCCNC(=N)N)C(=O)N[C@@H](CCCNC(=N)N)C(=O)N[C@@H](CCCNC(=N)N)C(=O)N[C@@H](Cc1ccccc1)C(=O)N2` [Protegrin 1], the “effect” value in experiment [3] is on record as “strong antimicrobial activity”. As to dermaseptin, the “effect” value in experiment [3] is “strong antimicrobial activity”. For the compound DATPHAALFFTVKDHTAGDN [Peptide P15], the “MBC NDM E. coli” value in experiment [1] was determined as 64 µM.
